Data published in patent US8058475B2, “Substituted cyclohexylmethyl compounds” (Gruenenthal GmbH, priority 2005, dated 2011).

Biological target: human μ-opiate receptor (Homo sapiens, UniProt P35372)
Assay: Affinity for the human μ-opiate receptor ([3H]-naloxone displacement, SPA, CHO-K1 membrane preparation)
Format: binding
Conditions: for inhibition at 1 µM: read-out: μ-Opioid receptor, % inhibition [1 μM]; for Ki: read-out: μ-Opioid receptor, Ki

Sequence of human μ-opiate receptor (P35372 whole entry): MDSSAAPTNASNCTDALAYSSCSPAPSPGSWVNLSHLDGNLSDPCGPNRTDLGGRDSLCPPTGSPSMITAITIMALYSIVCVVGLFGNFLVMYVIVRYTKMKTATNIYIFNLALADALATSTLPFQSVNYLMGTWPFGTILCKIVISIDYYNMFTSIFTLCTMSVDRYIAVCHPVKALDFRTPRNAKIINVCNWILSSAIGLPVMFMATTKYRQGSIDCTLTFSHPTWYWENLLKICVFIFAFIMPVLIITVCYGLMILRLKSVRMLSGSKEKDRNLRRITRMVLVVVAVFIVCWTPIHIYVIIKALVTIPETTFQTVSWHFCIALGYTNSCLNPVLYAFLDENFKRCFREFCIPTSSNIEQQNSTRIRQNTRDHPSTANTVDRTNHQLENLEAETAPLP

Structure (SMILES)	inhibition at 1 µM	Ki
COc1cccc(OC)c1C(=O)NC1CCC(C(c2ccccc2)N(C)C)CC1 (centres unmarked) [compound 287, N-[4-(dimethylamino-phenyl-methyl)-cyclohexyl]-2,6-dimethoxy-benzamide]	71%	150 nM
CN(C)C(c1ccccc1)C1CCC(NC(=O)C2CCCC2)CC1 (centres unmarked) [compound 288, cyclopentanecarboxylic acid [4-(dimethylamino-phenyl-methyl)-cyclohexyl]-amide]	70%	160 nM
CN(C)C(c1ccccc1)C1CCC(NC(=O)c2csc(-c3ccc4c(c3)CCO4)n2)CC1 (centres unmarked) [compound 289, 2-(2,3-dihydro-benzofuran-5-yl)-thiazole-4-carboxylic acid [4-(dimethylamino-phenyl-methyl)-cyclohexyl]-amide]	70%	78 nM
CN(C)C(c1cccc(F)c1)C1CCC(NC(=O)c2ccc3nsnc3c2)CC1 (centres unmarked) [compound 290, benzo[1,2,5]thiadiazole-5-carboxylic acid {4-[dimethylamino-(3-fluoro-phenyl)-methyl]-cyclohexyl}-amide]	70%	
CN(C)C(c1cccs1)C1CCC(CNC(=O)Cc2cccs2)CC1 (centres unmarked) [compound 291, N-[4-(dimethylamino-thiophen-2-yl-methyl)-cyclohexylmethyl]-2-thiophen-2-yl-acetamide]	102%	
CN(C)C(c1ccccc1)C1CCC(CNC(=O)c2csc3ccccc23)CC1 (centres unmarked) [compound 292, benzo[b]thiophene-3-carboxylic acid [4-(dimethylamino-phenyl-methyl)-cyclohexylmethyl]-amide]	102%	1.3 nM
COc1c(C(=O)NCC2CCC(C(c3ccccc3)N(C)C)CC2)csc1Cl (centres unmarked) [compound 293, 5-chloro-4-methoxy-thiophene-3-carboxylic acid [4-(dimethylamino-phenyl-methyl)-cyclohexylmethyl]-amide]	102%	4.6 nM
CN(C)C(c1cccc(F)c1)C1CCC(CNC(=O)CC(C)(C)C)CC1 (centres unmarked) [compound 295, N-{4-[dimethylamino-(3-fluoro-phenyl)-methyl]-cyclohexylmethyl}-3,3-dimethyl-butyramide]	101%	7.3 nM
CN(C)C(c1cccs1)C1CCC(CNC(=O)c2ccccc2Br)CC1 (centres unmarked) [compound 296, 2-bromo-N-[4-(dimethylamino-thiophen-2-yl-methyl)-cyclohexylmethyl]-benzamide]	100%	0.3 nM
CN(C)C(c1cccs1)C1CCC(CNC(=O)C(c2ccccc2)c2ccccc2)CC1 (centres unmarked) [compound 297, N-[4-(dimethylamino-thiophen-2-yl-methyl)-cyclohexylmethyl]-2,2-diphenyl-acetamide]	100%	4 nM
CN(C)C(c1ccccc1)C1CCC(CNC(=O)CC(C)(C)C)CC1 (centres unmarked) [compound 298, N-[4-(dimethylamino-phenyl-methyl)-cyclohexylmethyl]-3,3-dimethyl-butyramide]	100%	4 nM
CSc1ncccc1C(=O)NCC1CCC(C(c2ccccc2)N(C)C)CC1 (centres unmarked) [compound 299, N-[4-(dimethylamino-phenyl-methyl)-cyclohexylmethyl]-2-methylsulfanyl-nicotinamide]	100%	1 nM
COc1cccc(OC)c1C(=O)NCC1CCC(C(c2cccs2)N(C)C)CC1 (centres unmarked) [compound 300, N-[4-(dimethylamino-thiophen-2-yl-methyl)-cyclohexylmethyl]-2,6-dimethoxy-benzamide]	99%	1.4 nM
CN(C)C(c1cccs1)C1CCC(CNC(=O)CC(C)(C)C)CC1 (centres unmarked) [compound 301, N-[4-(dimethylamino-thiophen-2-yl-methyl)-cyclohexylmethyl]-3,3-dimethyl-butyramide]	99%	2.7 nM
CN(C)C(c1cccs1)C1CCC(CNC(=O)c2csc3ccccc23)CC1 (centres unmarked) [compound 302, benzo[b]thiophene-3-carboxylic acid [4-(dimethylamino-thiophen-2-yl-methyl)-cyclohexylmethyl]-amide]	99%	1.6 nM
COc1c(C(=O)NCC2CCC(C(c3cccc(F)c3)N(C)C)CC2)csc1Cl (centres unmarked) [compound 303, 5-chloro-4-methoxy-thiophene-3-carboxylic acid {4-[dimethylamino-(3-fluoro-phenyl)-methyl]-cyclohexylmethyl}-amide]	99%	19 nM
CC(Oc1ccccc1)C(=O)NCC1CCC(C(c2cccs2)N(C)C)CC1 (centres unmarked) [compound 304, N-[4-(dimethylamino-thiophen-2-yl-methyl)-cyclohexylmethyl]-2-phenoxy-propionamide]	99%	15 nM
COc1ccccc1C(=O)NCC1CCC(C(c2cccs2)N(C)C)CC1 (centres unmarked) [compound 305, N-[4-(dimethylamino-thiophen-2-yl-methyl)-cyclohexylmethyl]-2-methoxy-benzamide]	98%	12 nM
CN(C)C(c1ccccc1)C1CCC(CNC(=O)Cc2ccccc2)CC1 (centres unmarked) [compound 306, N-[4-(dimethylamino-phenyl-methyl)-cyclohexylmethyl]-2-phenyl-acetamide]	98%	9.9 nM
CN(C)C(c1cccs1)C1CCC(CNC(=O)c2cccc(Br)c2)CC1 (centres unmarked) [compound 307, 3-bromo-N-[4-(dimethylamino-thiophen-2-yl-methyl)-cyclohexylmethyl]-benzamide]	98%	6.2 nM
CN(C)C(c1cccs1)C1CCC(CNC(=O)c2cc(F)cc(C(F)(F)F)c2)CC1 (centres unmarked) [compound 308, N-[4-(dimethylamino-thiophen-2-yl-methyl)-cyclohexylmethyl]-3-fluoro-5-trifluoromethyl-benzamide]	98%	7.4 nM
CN(C)C(c1ccc(Cl)cc1)C1CCC(CNC(=O)CC(C)(C)C)CC1 (centres unmarked) [compound 309, N-{4-[(4-chloro-phenyl)-dimethylamino-methyl]-cyclohexylmethyl}-3,3-dimethyl-butyramide]	98%	5.6 nM
CCSc1ncccc1C(=O)NCC1CCC(C(c2ccccc2)N(C)C)CC1 (centres unmarked) [compound 310, N-[4-(dimethylamino-phenyl-methyl)-cyclohexylmethyl]-2-ethylsulfanyl-nicotinamide]	98%	16 nM
CN(C)C(c1cccs1)C1CCC(CNC(=O)Cc2ccc(Cl)cc2)CC1 (centres unmarked) [compound 311, 2-(4-chloro-phenyl)-N-[4-(dimethylamino-thiophen-2-yl-methyl)-cyclohexyl-methyl]-acetamide]	98%	11 nM
CN(C)C(c1ccc(Cl)cc1)C1CCC(CNC(=O)C(c2ccccc2)c2ccccc2)CC1 (centres unmarked) [compound 312, N-{4-[(4-chloro-phenyl)-dimethylamino-methyl]-cyclohexylmethyl}-2,2-diphenyl-acetamide]	97%	53 nM
CN(C)C(c1cccs1)C1CCC(CNC(=O)c2c(F)cccc2F)CC1 (centres unmarked) [compound 313, N-[4-(dimethylamino-thiophen-2-yl-methyl)-cyclohexylmethyl]-2,6-difluoro-benzamide]	97%	35 nM
